Key:
Assay type in all cases: in vivo
black-grass [1] = test: Test Example 4: weedkilling efficacy by foliar treatment; H: black-grass; conditions: treatment dosage 315 g/ha
In short: (§1)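 Seeds are spot-sown into sterilized diluvial soil and covered with about 1.5 cm of soil. After 14 days' greenhouse growth at 25 to 30° C, plants are sprayed on stems and leaves with diluted emulsion at the stated g/ha rate, then scored at 3 weeks.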

wheat [2] = test: Test Example 4: foliar treatment, effect on crop; e: wheat; conditions: treatment dosage 315 g/ha
In short: as §1

green foxtail [3] = test: Test Example 4: weedkilling efficacy by foliar treatment; E: green foxtail; conditions: treatment dosage 315 g/ha
In short: as §1

black-grass [4] = test: Test Example 3: weedkilling efficacy through soil treatment; H: black-grass; conditions: treatment dosage 315 g/ha
In short: (§2)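 Crop and weed responses were judged three weeks after a uniform surface spray of the water-diluted emulsion at the given g/ha rate. Seeds sat beneath about 1.5 cm of sterilized diluvial soil, and boxes stood in a greenhouse at 25 to 30° C.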

wild oat = test: Test Example 3: weedkilling efficacy through soil treatment; G: wild oat; conditions: treatment dosage 315 g/ha
In short: as §2

fig-leafed goosefoot [5] = test: Test Example 4: weedkilling efficacy by foliar treatment; M: fig-leafed goosefoot; conditions: treatment dosage 315 g/ha
In short: as §1

Italian ryegrass [6] = test: Test Example 3: weedkilling efficacy through soil treatment; I: Italian ryegrass; conditions: treatment dosage 315 g/ha
In short: as §2

catchweed = test: Test Example 4: weedkilling efficacy by foliar treatment; O: catchweed; conditions: treatment dosage 315 g/ha
In short: as §1

fig-leafed goosefoot [7] = test: Test Example 3: weedkilling efficacy through soil treatment; M: fig-leafed goosefoot; conditions: treatment dosage 315 g/ha
In short: as §2

bulrush [8] = test: Test Example 1: weedkilling efficacy, preemergent weed treatment in the submerged state; B: bulrush; conditions: treatment dosage 252 g/ha
In short: (§3)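 Emulsion diluted with water to the specified per-hectare dosage is applied onto flood water (4 cm) over alluvial soil on the sowing day, with barnyard grass, bulrush and pondweed seeded and rice (2.5-leaf) transplanted; plants grow at 25–30 °C and are rated at 3 weeks.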

wheat [9] = test: Test Example 3: soil treatment, effect on crop; e: wheat; conditions: treatment dosage 315 g/ha
In short: as §2

redroot pigweed [10] = test: Test Example 3: weedkilling efficacy through soil treatment; L: redroot pigweed; conditions: treatment dosage 315 g/ha
In short: as §2

corn [11] = test: Test Example 4: foliar treatment, effect on crop; c: corn; conditions: treatment dosage 315 g/ha
In short: as §1

directly sown rice [12] = test: Test Example 4: foliar treatment, effect on crop; b: directly sown rice; conditions: treatment dosage 315 g/ha
In short: as §1

barnyard grass [13] = test: Test Example 2: weedkilling efficacy, growth period weed treatment in the submerged state; A: barnyard grass; conditions: treatment dosage 252 g/ha
In short: (§4)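 First, alluvial soil in pots is flooded to 4 cm and mixed seed is sown. Next, plants grow in a greenhouse at 25 to 30° C until the 1-2 leaf stage. Then diluted emulsion is applied onto the water surface at the given g/ha rate, and injury is assessed after 3 weeks.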

Indian mallow [14] = test: Test Example 4: weedkilling efficacy by foliar treatment; K: Indian mallow; conditions: treatment dosage 315 g/ha
In short: as §1

transplanted rice = test: Test Example 1: preemergent weed treatment in the submerged state, effect on crop; a: transplanted rice; conditions: treatment dosage 252 g/ha
In short: as §3

soybean [15] = test: Test Example 4: foliar treatment, effect on crop; d: soybean; conditions: treatment dosage 315 g/ha
In short: as §1

Indian mallow [16] = test: Test Example 3: weedkilling efficacy through soil treatment; K: Indian mallow; conditions: treatment dosage 315 g/ha
In short: as §2

redroot pigweed [17] = test: Test Example 4: weedkilling efficacy by foliar treatment; L: redroot pigweed; conditions: treatment dosage 315 g/ha
In short: as §1

barnyard grass [18] = test: Test Example 1: weedkilling efficacy, preemergent weed treatment in the submerged state; A: barnyard grass; conditions: treatment dosage 252 g/ha
In short: as §3

crabgrass [19] = test: Test Example 3: weedkilling efficacy through soil treatment; D: crabgrass; conditions: treatment dosage 315 g/ha
In short: as §2

Italian ryegrass [20] = test: Test Example 4: weedkilling efficacy by foliar treatment; I: Italian ryegrass; conditions: treatment dosage 315 g/ha
In short: as §1

beet [21] = test: Test Example 4: foliar treatment, effect on crop; f: beet; conditions: treatment dosage 315 g/ha
In short: as §1

corn [22] = test: Test Example 3: soil treatment, effect on crop; c: corn; conditions: treatment dosage 315 g/ha
In short: as §2

birds-eye speedwell [23] = test: Test Example 3: weedkilling efficacy through soil treatment; p: birds-eye speedwell; conditions: treatment dosage 315 g/ha
In short: as §2

birds-eye speedwell [24] = test: Test Example 4: weedkilling efficacy by foliar treatment; p: birds-eye speedwell; conditions: treatment dosage 315 g/ha
In short: as §1

soybean [25] = test: Test Example 3: soil treatment, effect on crop; d: soybean; conditions: treatment dosage 315 g/ha
In short: as §2

crabgrass [26] = test: Test Example 4: weedkilling efficacy by foliar treatment; D: crabgrass; conditions: treatment dosage 315 g/ha
In short: as §1

oval-leafed pondweed [27] = test: Test Example 2: weedkilling efficacy, growth period weed treatment in the submerged state; C: oval-leafed pondweed; conditions: treatment dosage 252 g/ha
In short: as §4

bulrush [28] = test: Test Example 2: weedkilling efficacy, growth period weed treatment in the submerged state; B: bulrush; conditions: treatment dosage 252 g/ha
In short: as §4

oval-leafed pondweed [29] = test: Test Example 1: weedkilling efficacy, preemergent weed treatment in the submerged state; C: oval-leafed pondweed; conditions: treatment dosage 252 g/ha
In short: as §3

directly sown rice [30] = test: Test Example 3: soil treatment, effect on crop; b: directly sown rice; conditions: treatment dosage 315 g/ha
In short: as §2

chickweed [31] = test: Test Example 4: weedkilling efficacy by foliar treatment; N: chickweed; conditions: treatment dosage 315 g/ha
In short: as §1

green foxtail [32] = test: Test Example 3: weedkilling efficacy through soil treatment; E: green foxtail; conditions: treatment dosage 315 g/ha
In short: as §2

beet [33] = test: Test Example 3: soil treatment, effect on crop; f: beet; conditions: treatment dosage 315 g/ha
In short: as §2

chickweed [34] = test: Test Example 3: weedkilling efficacy through soil treatment; N: chickweed; conditions: treatment dosage 315 g/ha
In short: as §2

Q: Which “H (black-grass) weedkilling efficacy grade” value (black-grass [1]) does the source give for COc1nsc(NC(=O)C(C)(C)N2COC(C)=C(c3ccsc3)C2=O)n1 [B-1-04] here?
A: 5 (weed kill ratio 90% or more, (practically complete withering))

Q: And the “e (wheat) effect on crop grade” value (wheat [2])?
A: 0 (weed kill ratio 5% or less (practically no effect))

Q: What about the “E (green foxtail) weedkilling efficacy grade” value (green foxtail [3]) of the same compound?
A: 4 (weed kill ratio 70% or more, less than 90%)

Q: What about the “H (black-grass) weedkilling efficacy grade” value (black-grass [4]) of the same compound?
A: 5 (weed kill ratio 90% or more, (practically complete withering))

Q: And the “G (wild oat) weedkilling efficacy grade” value (wild oat)?
A: 4 (weed kill ratio 70% or more, less than 90%)

Q: What about the “M (fig-leafed goosefoot) weedkilling efficacy grade” value (fig-leafed goosefoot [5]) of the same compound?
A: 5 (weed kill ratio 90% or more, (practically complete withering))

Q: What about the “I (Italian ryegrass) weedkilling efficacy grade” value (Italian ryegrass [6]) of the same compound?
A: 5 (weed kill ratio 90% or more, (practically complete withering))

Q: And the “O (catchweed) weedkilling efficacy grade” value (catchweed)?
A: 4 (weed kill ratio 70% or more, less than 90%)

Q: And the “M (fig-leafed goosefoot) weedkilling efficacy grade” value (fig-leafed goosefoot [7])?
A: 5 (weed kill ratio 90% or more, (practically complete withering))

Q: And the “B (bulrush) weedkilling efficacy grade” value (bulrush [8])?
A: 5 (weed kill ratio 90% or more, (practically complete withering))

Q: And the “e (wheat) effect on crop grade” value (wheat [9])?
A: 0 (weed kill ratio 5% or less (practically no effect))

Q: What about the “L (redroot pigweed) weedkilling efficacy grade” value (redroot pigweed [10]) of the same compound?
A: 4 (weed kill ratio 70% or more, less than 90%)

Q: And the “c (corn) effect on crop grade” value (corn [11])?
A: 3 (weed kill ratio 40% or more, less than 70%)

Q: What about the “b (directly sown rice) effect on crop grade” value (directly sown rice [12]) of the same compound?
A: 4 (weed kill ratio 70% or more, less than 90%)

Q: And the “A (barnyard grass) weedkilling efficacy grade” value (barnyard grass [13])?
A: 5 (weed kill ratio 90% or more, (practically complete withering))

Q: What about the “K (Indian mallow) weedkilling efficacy grade” value (Indian mallow [14]) of the same compound?
A: 4 (weed kill ratio 70% or more, less than 90%)

Q: What about the “a (transplanted rice) effect on crop grade” value (transplanted rice) of the same compound?
A: 0 (weed kill ratio 5% or less (practically no effect))

Q: What about the “d (soybean) effect on crop grade” value (soybean [15]) of the same compound?
A: 0 (weed kill ratio 5% or less (practically no effect))

Q: What about the “K (Indian mallow) weedkilling efficacy grade” value (Indian mallow [16]) of the same compound?
A: 3 (weed kill ratio 40% or more, less than 70%)

Q: And the “L (redroot pigweed) weedkilling efficacy grade” value (redroot pigweed [17])?
A: 4 (weed kill ratio 70% or more, less than 90%)

Q: And the “A (barnyard grass) weedkilling efficacy grade” value (barnyard grass [18])?
A: 5 (weed kill ratio 90% or more, (practically complete withering))

Q: And the “D (crabgrass) weedkilling efficacy grade” value (crabgrass [19])?
A: 5 (weed kill ratio 90% or more, (practically complete withering))

Q: And the “I (Italian ryegrass) weedkilling efficacy grade” value (Italian ryegrass [20])?
A: 5 (weed kill ratio 90% or more, (practically complete withering))

Q: What about the “f (beet) effect on crop grade” value (beet [21]) of the same compound?
A: 5 (weed kill ratio 90% or more, (practically complete withering))

Q: And the “c (corn) effect on crop grade” value (corn [22])?
A: 0 (weed kill ratio 5% or less (practically no effect))

Q: What about the “P (birds-eye speedwell) weedkilling efficacy grade” value (birds-eye speedwell [23]) of the same compound?
A: 5 (weed kill ratio 90% or more, (practically complete withering))

Q: What about the “P (birds-eye speedwell) weedkilling efficacy grade” value (birds-eye speedwell [24]) of the same compound?
A: 3 (weed kill ratio 40% or more, less than 70%)

Q: What about the “d (soybean) effect on crop grade” value (soybean [25]) of the same compound?
A: 0 (weed kill ratio 5% or less (practically no effect))

Q: What about the “D (crabgrass) weedkilling efficacy grade” value (crabgrass [26]) of the same compound?
A: 4 (weed kill ratio 70% or more, less than 90%)

Q: What about the “C (oval-leafed pondweed) weedkilling efficacy grade” value (oval-leafed pondweed [27]) of the same compound?
A: 5 (weed kill ratio 90% or more, (practically complete withering))

Q: And the “B (bulrush) weedkilling efficacy grade” value (bulrush [28])?
A: 5 (weed kill ratio 90% or more, (practically complete withering))

Q: And the “C (oval-leafed pondweed) weedkilling efficacy grade” value (oval-leafed pondweed [29])?
A: 5 (weed kill ratio 90% or more, (practically complete withering))

Q: What about the “b (directly sown rice) effect on crop grade” value (directly sown rice [30]) of the same compound?
A: 4 (weed kill ratio 70% or more, less than 90%)

Q: And the “N (chickweed) weedkilling efficacy grade” value (chickweed [31])?
A: 3 (weed kill ratio 40% or more, less than 70%)

Q: What about the “E (green foxtail) weedkilling efficacy grade” value (green foxtail [32]) of the same compound?
A: 5 (weed kill ratio 90% or more, (practically complete withering))

Q: What about the “f (beet) effect on crop grade” value (beet [33]) of the same compound?
A: 4 (weed kill ratio 70% or more, less than 90%)

Q: And the “N (chickweed) weedkilling efficacy grade” value (chickweed [34])?
A: 4 (weed kill ratio 70% or more, less than 90%)

Reference: patent US9738634B2, “Heterocyclic amide compound and herbicide” (SYNGENTA PARTICIPATIONS AG, priority 2013, dated 2017)
